Where no end group is shown, it is not given here.
How the values were obtained:
sirtuin 1 (SIRT1) = assay: Western blot of SIRT1 protein expression in adipocytes; type: cell-based; conditions: differentiated 3T3-L1 adipocytes; 0.2, 2, 20 μg/mL; 1 hour; Western blot (FIGS. 1a, 1b)
Experimental: (§1) An experiment was performed to determine whether the peptide complex prepared in Preparation Example 1 using adipocytes increases the phosphorylation of AMP-activated protein kinase (AMPK), which is a longevity-related protein, and increases the expression levels of sirtuin 1 (SIRT1) and fibroblast growth factor 21 (FGF21) proteins in adipocytes.
(§2) When 3T3-L1 preadipocytes reached 80% confluence, they were seeded at 5×10^3 cells/well in a 96-well plate and used for the experiment. Two days after reaching confluence, the medium was replaced with a differentiation-inducing medium to induce the differentiation into adipocytes, and two days after the induction, the cells were cultured for 2 days in a medium containing 10% FBS and 10 μg/mL insulin, and then the medium was replaced with 10% FBS every 2 days until their differentiation into adipocytes. Once the differentiation was complete, the medium was replaced with a serum-free medium and cultured for 4 hours to induce starvation. The peptide complexes were treated at concentrations of 0.2 μg/mL, 2 μg/mL, and 20 μg/mL, incubated for 1 hour, dissolved by adding dissolution buffer thereto, and the proteins obtained by centrifugation at 4° C. and 12,000 rpm for 30 minutes were quantified using a BCA kit. […]

[1] = tested on: AMP-activated protein kinase (AMPK); assay: Western blot of AMPK phosphorylation in adipocytes; type: cell-based; conditions: differentiated 3T3-L1 adipocytes; 0.2, 2, 20 μg/mL; 1 hour; Western blot (FIGS. 1a, 1b)
Experimental: as §1, §2

SIRT1 (sirtuin1) protein = assay: Western blot of SIRT1 protein expression in palmitate-treated adipocytes (insulin metabolic disorder); type: cell-based; conditions: 3T3-L1 adipocytes, 25 μM palmitate 30 minutes; 0.2, 2, 20 μg/mL; 24 hours; Western blot (FIGS. 3a, 3b)
Experimental: An experiment was performed to determine whether the peptide complex prepared in Preparation Example 1 increases the phosphorylation of AMP-activated protein kinase (AMPK) and the expression level of SIRT1 (sirtuin1) protein in adipocytes in a state of insulin metabolic disorder induced by palmitate treatment.
as §2, with “Once” for “Once the”, “starvation. After 30 minutes of treatment with 25 μM palmitate, the” for “starvation. The”, “20 μg/mL and” for “20 μg/mL,”, “for 24 hours. After dissolving” for “for 1 hour, dissolved”, “dissolution buffer,” for “dissolution buffer thereto, and”

FGF21 = assay: Western blot of FGF21 protein expression in myocytes; type: cell-based, mouse; conditions: differentiated C2C12 myocytes; 0.2, 2, 20 μg/mL; 24 hours; Western blot (FIGS. 6a, 6b)
Experimental: An experiment was performed to determine whether the peptide complex increases the phosphorylation of AMPK and the expression of SIRT1 and FGF21 proteins in myocytes.
C2C12 cells, mouse-derived myoblasts, were cultured in DMEM medium containing 1% P/S and 2% BCS. When the cell confluency reached 70-80%, the cells were seeded in a 6-well culture plate. When the cell confluency in the 6-well culture plate reached 100%, the medium was replaced with differentiation medium (1% P/S, 2% horse serum), and thereafter, the differentiation medium (1% P/S, 2% horse serum) was replaced once every two days. Five days after the first replacement, the peptide complex was treated at concentrations of 0.2 μg/mL, 2 μg/mL, and 20 μg/mL and cultured for 24 hours. The group untreated with the peptide complex was used as the control. After dissolving by adding dissolution buffer thereto, the proteins obtained were centrifuged at 4° C. and 12,000 rpm for 30 minutes, and quantified using a BCA kit. The proteins were subjected to sodium dodecyl sulfate-polyacrylamide gel electrophoresis (SDS-PAGE) and then electrotransferred onto a membrane. The membrane with the proteins attached was blocked by treating it with 5% skim milk, and then the primary antibody was reacted overnight at 4° C. […]

[2] = tested on: fibroblast growth factor 21 (FGF21); assay: Western blot of FGF21 protein expression in adipocytes; type: cell-based; conditions: differentiated 3T3-L1 adipocytes; 0.2, 2, 20 μg/mL; 1 hour; Western blot (FIGS. 1a, 1b)
Experimental: as §1, §2

peptide complex: prepared by mixing equal amounts of the peptide of SEQ ID NO: 1 (LKTRN) and the peptide of SEQ ID NO: 2 (KGSATGWMA) (also: mixture of two peptides)
increased: expression level of SIRT1 protein (sirtuin 1 (SIRT1)) | phosphorylation of AMPKα [1] | expression level of SIRT1 protein (SIRT1 (sirtuin1) protein) | expression level of FGF21 protein (FGF21) | expression level of FGF21 protein [2]

Source: patent US20260234185A1, “ANTI-AGING COMPOSITION COMPRISING PEPTIDE COMPLEX AS ACTIVE INGREDIENT” (priority 2023, published 2026)
